Among the data in paper PMC7315737, “The putative Escherichia coli dehydrogenase YjhC metabolises two dehydrated forms of N-acetylneuraminate produced by some sialidases” (Bioscience Reports, 2020) are co-purified ligand detected values, retold here.

For this test, the target named is T1, YjhC (Escherichia coli, UniProt P39353).
T1 construct: gene nanY; full-length ORF from ASKA library in pCA24N, N-terminal His6-tag kept, expressed in E. coli BL21
Briefly: LC-MS of ligand co-purified with the enzyme. In kind it is binding. To be noted: co-purified after metal affinity and gel filtration.

T1 sequence (P39353 whole entry): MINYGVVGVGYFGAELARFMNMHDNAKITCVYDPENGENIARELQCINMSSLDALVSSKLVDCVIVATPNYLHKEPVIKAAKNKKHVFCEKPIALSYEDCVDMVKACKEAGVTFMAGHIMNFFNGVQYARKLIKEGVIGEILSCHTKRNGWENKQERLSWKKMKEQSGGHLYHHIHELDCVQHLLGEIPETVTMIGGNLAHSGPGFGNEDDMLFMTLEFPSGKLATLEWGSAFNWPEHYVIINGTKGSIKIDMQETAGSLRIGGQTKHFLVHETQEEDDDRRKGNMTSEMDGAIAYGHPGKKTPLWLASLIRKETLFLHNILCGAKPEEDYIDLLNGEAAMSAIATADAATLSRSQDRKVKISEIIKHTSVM

In the case of `NC(=O)C1=CN([C@@H]2O[C@H](COP(=O)(O)OP(=O)(O)OC[C@H]3O[C@@H](n4cnc5c(N)ncnc54)[C@H](O)[C@@H]3O)[C@@H](O)[C@H]2O)C=CC1` [NADH], the co-purified ligand detected result is “presence of small amounts of NAD^+ and NADH”.
